The text below walks through data of US11168078B2, “Sulfoximine, sulfonimidamide, sulfondiimine and diimidosulfonamide compounds as inhibitors of indoleamine 2,3-dioxygenase” (Shanghai Fochon Pharmaceutical Co., Ltd., priority 2016, dated 2021).

One data set in a line: Rat PK. It counts as in vivo. As to conditions: po, male SD rats, 5 mg/kg p.o., suspended in 0.5% methylcellulose in water, plasma. How it is done: Each test compounds was suspended in 0.5% methylcellulose in water.
Grouping male SD rats was administered with test compound at a dose of 5 mg/kg by oral. After administering, blood samples were collected at time points of 0.50, 1.0, 2.0, 4.0, 6.0, 8.0 and 24.0 h. Standard curve was plotted based on concentrations of the samples in a suitable range, and the concentration of test compounds in plasma samples were determined by using LC-MS/MS. Pharmacokinetic parameters were calculated according to plasma concentration-time curve by Phoenix WinNonLin 6.1 software.

Another data set deals with T1, IDO (Homo sapiens, UniProt P14902).
T1 construct: endogenous in cells; host or cells: HeLa cells stimulated with recombinant human interferon-gamma
T1 sequence (P14902 whole entry): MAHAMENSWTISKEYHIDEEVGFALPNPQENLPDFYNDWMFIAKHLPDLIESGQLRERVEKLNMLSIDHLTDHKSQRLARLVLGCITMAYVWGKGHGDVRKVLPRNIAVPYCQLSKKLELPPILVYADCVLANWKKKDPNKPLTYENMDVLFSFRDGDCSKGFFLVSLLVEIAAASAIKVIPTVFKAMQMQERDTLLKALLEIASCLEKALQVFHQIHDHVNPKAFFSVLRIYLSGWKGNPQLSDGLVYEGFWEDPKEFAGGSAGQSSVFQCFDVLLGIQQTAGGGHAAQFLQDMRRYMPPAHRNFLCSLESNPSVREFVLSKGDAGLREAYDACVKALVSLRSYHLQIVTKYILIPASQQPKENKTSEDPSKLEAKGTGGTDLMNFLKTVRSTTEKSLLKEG
In words: IDO Cell-Based LC/MS Assay. As to conditions: Hela cells, 100 ng/mL recombinant human interferon-gamma, 20 hours, LC/MS readout. The text has this: IDO Cell-Based LC/MS Assay
Materials: RPMI 1640 (phenol red free) (Invitrogen Cat. No. 11835030), Fetal Bovine Serum (Invitrogen Cat. No. 10099141), Penicillin-Streptomycin (Invitrogen Gibco Cat. No. 15140-122), recombinant human interferon-gamma (R&D system, Cat. No. 285-IF-100), 5% (w/v) trichloroacetic acid (Alfa Aesar Cat. No. All 156), DMSO (Sigma, Cat. No. D2650), 96 wells_compound plate (Axygen, Cat. No. WIPP02280), 96 wells_assay plate (Greiner, Cat. No. 655090)
The concentrations of test compounds varied from 5 μM to 0.76 nM with 3-fold dilution, 9 points, in duplicates.
Hela cells were seeded at 40,000 cells per well with RPMI/phenol red free media containing 10% FBS in a 96-well tissue culture plate. After adding compound to cells, 100 ng/mL of recombinant human interferon-gamma was added to activate IDO signaling. The cells were incubated for 20 hours in 37° C. incubator with 5% CO2. Compound treatment was stopped by adding 5% trichloroacetic acid. Subsequently, the cell plate was further incubated at 50° C. for 30 minutes. After precipitation, the supernatant was collected and measured by triple quadrupole mass spectrometer (AB Sciex 4000), coupled with HPLC Shimadzu EC 20 AD and autosampler CTC PAL. Curves are fit by XLFIT5 as % inhibition vs. log [compound concentration] using a 4 parameters logistic model 205.
Select compounds prepared as described above were assayed according to the biological procedures described herein.

For orientation: AUC(0-inf) means the area under the concentration-time curve extrapolated to infinity. A lower AUC(0-inf) goes with less exposure. Usually AUC(0-t) stands for exposure summed from dosing to a finite time, without extrapolation to infinity. The term Cmax denotes the maximum level reached in the sampled fluid or tissue. As a reminder, the half-life is how long it takes for the measured level to halve. A higher half-life goes with slow loss. What is called IC50 is the concentration at which inhibition is half-maximal.

In the case of `CCS(=N)(=O)NCCNc1nonc1C(=NO)Nc1ccc(F)c(Br)c1` (centres unmarked) [Example 7, (Z)—N-(3-bromo-4-fluorophenyl)-4-((2-(ethylsulfonoimidamido)ethyl)amino)-N′-hydroxy-1,2,5-oxadiazole-3-carboximidamide], in the data set “Rat PK”, the AUC(0-inf) turned out to be 1450 ng·h/mL, the area under the curve AUC(0-t) turned out to be 1440 ng·h/mL, the concentration peaked (Cmax) at 496 ng/mL and the half-life was 3.47 h. The IC50 on IDO was 6.6 nM.
